What was measured:
Type in all cases: functional
Settings in all cases: read-out: IZ
Proteus vulgaris [1] = test: Antibacterial activity against Proteus vulgaris at 900 ug/ml after overnight incubation
Escherichia coli [2] = test: Antibacterial activity against Escherichia coli at 600 ug/ml after overnight incubation
Escherichia coli [3] = test: Antibacterial activity against Escherichia coli at 900 ug/ml after overnight incubation
Proteus vulgaris [4] = test: Antibacterial activity against Proteus vulgaris at 600 ug/ml after overnight incubation
Colletotrichum falcatum [5] = test: Antifungal activity against Glomerella tucumanensis at 300 ug/ml after 48 hr
Fusarium oxysporum [6] = test: Antifungal activity against Fusarium oxysporum at 1200 ug/ml after 48 hr
Fusarium oxysporum [7] = test: Antifungal activity against Fusarium oxysporum at 900 ug/ml after 48 hr
Fusarium oxysporum [8] = test: Antifungal activity against Fusarium oxysporum at 600 ug/ml after 48 hr
Fusarium oxysporum [9] = test: Antifungal activity against Fusarium oxysporum at 300 ug/ml after 48 hr
Candida albicans [10] = test: Antifungal activity against Candida albicans at 1200 ug/ml after 48 hr
Candida albicans [11] = test: Antifungal activity against Candida albicans at 900 ug/ml after 48 hr
Candida albicans [12] = test: Antifungal activity against Candida albicans at 600 ug/ml after 48 hr
Candida albicans [13] = test: Antifungal activity against Candida albicans at 300 ug/ml after 48 hr
Streptococcus pyogenes [14] = test: Antibacterial activity against Streptococcus pyogenes at 900 ug/ml after overnight incubation
Streptococcus pyogenes [15] = test: Antibacterial activity against Streptococcus pyogenes at 600 ug/ml after overnight incubation
Staphylococcus aureus [16] = test: Antibacterial activity against Staphylococcus aureus at 900 ug/ml after overnight incubation
Staphylococcus aureus [17] = test: Antibacterial activity against Staphylococcus aureus at 600 ug/ml after overnight incubation
Bacillus pumilus [18] = test: Antibacterial activity against Bacillus pumilus at 900 ug/ml after overnight incubation
Bacillus pumilus [19] = test: Antibacterial activity against Bacillus pumilus at 600 ug/ml after overnight incubation
Priestia megaterium [20] = test: Antibacterial activity against Bacillus megaterium at 900 ug/ml after overnight incubation
Priestia megaterium [21] = test: Antibacterial activity against Bacillus megaterium at 600 ug/ml after overnight incubation
Bacillus subtilis [22] = test: Antibacterial activity against Bacillus subtilis at 900 ug/ml after overnight incubation
Bacillus subtilis [23] = test: Antibacterial activity against Bacillus subtilis at 600 ug/ml after overnight incubation
Klebsiella aerogenes [24] = test: Antibacterial activity against Enterobacter aerogenes at 900 ug/ml after overnight incubation
Klebsiella aerogenes [25] = test: Antibacterial activity against Enterobacter aerogenes at 600 ug/ml after overnight incubation
Klebsiella pneumoniae [26] = test: Antibacterial activity against Klebsiella pneumoniae at 900 ug/ml after overnight incubation
Klebsiella pneumoniae [27] = test: Antibacterial activity against Klebsiella pneumoniae at 600 ug/ml after overnight incubation
Enterococcus faecalis [28] = test: Antibacterial activity against Enterococcus faecalis at 900 ug/ml after overnight incubation
Enterococcus faecalis [29] = test: Antibacterial activity against Enterococcus faecalis at 600 ug/ml after overnight incubation
Exserohilum rostratum [30] = test: Antifungal activity against Setosphaeria rostrata at 1200 ug/ml after 48 hr
Exserohilum rostratum [31] = test: Antifungal activity against Setosphaeria rostrata at 900 ug/ml after 48 hr
Exserohilum rostratum [32] = test: Antifungal activity against Setosphaeria rostrata at 600 ug/ml after 48 hr
Exserohilum rostratum [33] = test: Antifungal activity against Setosphaeria rostrata at 300 ug/ml after 48 hr
Colletotrichum falcatum [34] = test: Antifungal activity against Glomerella tucumanensis at 1200 ug/ml after 48 hr
Colletotrichum falcatum [35] = test: Antifungal activity against Glomerella tucumanensis at 900 ug/ml after 48 hr
Colletotrichum falcatum [36] = test: Antifungal activity against Glomerella tucumanensis at 600 ug/ml after 48 hr

SMILES	zone of inhibition at 900 µg/mL (Proteus vulgaris [1]) [mm]	zone of inhibition at 600 µg/mL (Escherichia coli [2]) [mm]	zone of inhibition at 900 µg/mL (Escherichia coli [3]) [mm]	zone of inhibition at 600 µg/mL (Proteus vulgaris [4]) [mm]	zone of inhibition at 300 µg/mL (Colletotrichum falcatum [5]) [mm]	zone of inhibition at 1200 µg/mL (Fusarium oxysporum [6]) [mm]	zone of inhibition at 900 µg/mL (Fusarium oxysporum [7]) [mm]	zone of inhibition at 600 µg/mL (Fusarium oxysporum [8]) [mm]	zone of inhibition at 300 µg/mL (Fusarium oxysporum [9]) [mm]	zone of inhibition at 1200 µg/mL (Candida albicans [10]) [mm]	zone of inhibition at 900 µg/mL (Candida albicans [11]) [mm]	zone of inhibition at 600 µg/mL (Candida albicans [12]) [mm]	zone of inhibition at 300 µg/mL (Candida albicans [13]) [mm]	zone of inhibition at 900 µg/mL (Streptococcus pyogenes [14]) [mm]	zone of inhibition at 600 µg/mL (Streptococcus pyogenes [15]) [mm]	zone of inhibition at 900 µg/mL (Staphylococcus aureus [16]) [mm]	zone of inhibition at 600 µg/mL (Staphylococcus aureus [17]) [mm]	zone of inhibition at 900 µg/mL (Bacillus pumilus [18]) [mm]	zone of inhibition at 600 µg/mL (Bacillus pumilus [19]) [mm]	zone of inhibition at 900 µg/mL (Priestia megaterium [20]) [mm]	also measured
CC(C)(C)c1cc(-c2nnc(CN3CCC(n4nc5ccccc5n4)CC3)o2)cc(C(C)(C)C)c1	9.45	3.25	6.8	4.95	3.98	33.8	17.9	9.25	4.5	29.9	15	7.08	3.97	8.95	3.95	9.05	4.3	9.95	4.56	8.21	zone of inhibition at 600 µg/mL (Priestia megaterium [21]): 3.95 mm; zone of inhibition at 900 µg/mL (Bacillus subtilis [22]): 11.2 mm; zone of inhibition at 600 µg/mL (Bacillus subtilis [23]): 5.05 mm; zone of inhibition at 900 µg/mL (Klebsiella aerogenes [24]): 7.25 mm; zone of inhibition at 600 µg/mL (Klebsiella aerogenes [25]): 3.5 mm; zone of inhibition at 900 µg/mL (Klebsiella pneumoniae [26]): 7.85 mm; zone of inhibition at 600 µg/mL (Klebsiella pneumoniae [27]): 3.85 mm; zone of inhibition at 900 µg/mL (Enterococcus faecalis [28]): 11.6 mm; zone of inhibition at 600 µg/mL (Enterococcus faecalis [29]): 5.85 mm; zone of inhibition at 1200 µg/mL (Exserohilum rostratum [30]): 29.8 mm; zone of inhibition at 900 µg/mL (Exserohilum rostratum [31]): 15.9 mm; zone of inhibition at 600 µg/mL (Exserohilum rostratum [32]): 8.25 mm; zone of inhibition at 300 µg/mL (Exserohilum rostratum [33]): 4.54 mm; zone of inhibition at 1200 µg/mL (Colletotrichum falcatum [34]): 32 mm; zone of inhibition at 900 µg/mL (Colletotrichum falcatum [35]): 15.8 mm; zone of inhibition at 600 µg/mL (Colletotrichum falcatum [36]): 8.32 mm
Cc1c(Br)cccc1-c1nnc(CN2CCC(n3nc4ccccc4n3)CC2)o1	7.05	5.23	9.46	3.45	3.97	24.9	13.3	6.56	3.42	17.9	9.36	4.18	2.09	9.25	4.82	10	4.8	8.54	4.29	10.3	zone of inhibition at 600 µg/mL (Priestia megaterium [21]): 5.3 mm; zone of inhibition at 900 µg/mL (Bacillus subtilis [22]): 9.8 mm; zone of inhibition at 600 µg/mL (Bacillus subtilis [23]): 4.8 mm; zone of inhibition at 900 µg/mL (Klebsiella aerogenes [24]): 7.56 mm; zone of inhibition at 600 µg/mL (Klebsiella aerogenes [25]): 3.65 mm; zone of inhibition at 900 µg/mL (Klebsiella pneumoniae [26]): 10.2 mm; zone of inhibition at 600 µg/mL (Klebsiella pneumoniae [27]): 5.25 mm; zone of inhibition at 900 µg/mL (Enterococcus faecalis [28]): 12.1 mm; zone of inhibition at 600 µg/mL (Enterococcus faecalis [29]): 5.92 mm; zone of inhibition at 1200 µg/mL (Exserohilum rostratum [30]): 23.9 mm; zone of inhibition at 900 µg/mL (Exserohilum rostratum [31]): 11.3 mm; zone of inhibition at 600 µg/mL (Exserohilum rostratum [32]): 5.25 mm; zone of inhibition at 300 µg/mL (Exserohilum rostratum [33]): 2.98 mm; zone of inhibition at 1200 µg/mL (Colletotrichum falcatum [34]): 29.3 mm; zone of inhibition at 900 µg/mL (Colletotrichum falcatum [35]): 15.4 mm; zone of inhibition at 600 µg/mL (Colletotrichum falcatum [36]): 8.25 mm
Fc1cccc(-c2nnc(CN3CCC(n4nc5ccccc5n4)CC3)o2)c1F	8.74	3.25	7.15	4.56	4.82	25.4	13.2	7.01	4.21	17.2	9.86	5.25	3.33	3.15	1.13	7.56	4.25	7.24	3.35	11.2	zone of inhibition at 600 µg/mL (Priestia megaterium [21]): 5.86 mm; zone of inhibition at 900 µg/mL (Bacillus subtilis [22]): 9.56 mm; zone of inhibition at 600 µg/mL (Bacillus subtilis [23]): 4.8 mm; zone of inhibition at 900 µg/mL (Klebsiella aerogenes [24]): 5.45 mm; zone of inhibition at 600 µg/mL (Klebsiella aerogenes [25]): 2.09 mm; zone of inhibition at 900 µg/mL (Klebsiella pneumoniae [26]): 13.2 mm; zone of inhibition at 600 µg/mL (Klebsiella pneumoniae [27]): 6.23 mm; zone of inhibition at 900 µg/mL (Enterococcus faecalis [28]): 5.36 mm; zone of inhibition at 600 µg/mL (Enterococcus faecalis [29]): 2.35 mm; zone of inhibition at 1200 µg/mL (Exserohilum rostratum [30]): 29.8 mm; zone of inhibition at 900 µg/mL (Exserohilum rostratum [31]): 15 mm; zone of inhibition at 600 µg/mL (Exserohilum rostratum [32]): 7.86 mm; zone of inhibition at 300 µg/mL (Exserohilum rostratum [33]): 3.81 mm; zone of inhibition at 1200 µg/mL (Colletotrichum falcatum [34]): 33.9 mm; zone of inhibition at 900 µg/mL (Colletotrichum falcatum [35]): 17.8 mm; zone of inhibition at 600 µg/mL (Colletotrichum falcatum [36]): 9.25 mm
c1ccc(-c2nnc(CN3CCC(n4nc5ccccc5n4)CC3)o2)cc1	7.5	2.24	4.85	3.8	3.56	21.3	10.2	4.85	2.25	24.2	13.2	6.05	3.12	8.25	4.01	8.25	3.26	8.65	4.25	11.4	zone of inhibition at 600 µg/mL (Priestia megaterium [21]): 5.82 mm; zone of inhibition at 900 µg/mL (Bacillus subtilis [22]): 5.45 mm; zone of inhibition at 600 µg/mL (Bacillus subtilis [23]): 2.65 mm; zone of inhibition at 900 µg/mL (Klebsiella aerogenes [24]): 11.2 mm; zone of inhibition at 600 µg/mL (Klebsiella aerogenes [25]): 5.82 mm; zone of inhibition at 900 µg/mL (Klebsiella pneumoniae [26]): 6.56 mm; zone of inhibition at 600 µg/mL (Klebsiella pneumoniae [27]): 3.35 mm; zone of inhibition at 900 µg/mL (Enterococcus faecalis [28]): 9.25 mm; zone of inhibition at 600 µg/mL (Enterococcus faecalis [29]): 4.25 mm; zone of inhibition at 1200 µg/mL (Exserohilum rostratum [30]): 24 mm; zone of inhibition at 900 µg/mL (Exserohilum rostratum [31]): 11.8 mm; zone of inhibition at 600 µg/mL (Exserohilum rostratum [32]): 6.25 mm; zone of inhibition at 300 µg/mL (Exserohilum rostratum [33]): 3.15 mm; zone of inhibition at 1200 µg/mL (Colletotrichum falcatum [34]): 27.9 mm; zone of inhibition at 900 µg/mL (Colletotrichum falcatum [35]): 13.2 mm; zone of inhibition at 600 µg/mL (Colletotrichum falcatum [36]): 7.26 mm
